Assay results: patent US6458381B1, “Lipids and their use, for example, in liposomes” (priority 1996, dated 2002)

Columns and labels:
Type in all cases: cell-based, human
HeLa cells [1] = assay: Intracellular delivery of fluorescein labelled phosphothioate oligonucleotide, fluorescent microscopy
Method: HeLa cells (plated one day before the experiment, 2×10^5 cells per well, 6-well plate) were grown on glass microscope slides in 2 ml of RPMI 1640 supplemented with 10% FCS. Before the experiment, the medium was replaced with RPMI 1640 without serum.
Formation of oligonucleotide-compound (1) complexes was done as follows. 10 μg of phosphothioate oligonucleotide was dissolved in […] of transfection buffer. 16 μg and 50 μg of compound (1) were diluted with transfection buffer to the final volume of 100 μl. The two solutions were mixed together and incubated for 10 min. Oligonucleotide solution without compound (1) was diluted with 100 μl of transfection buffer. The resultant solutions (200 μl per well) were added to the cell cultures (final concentration of oligonucleotide was about 1 μM, compound (1) 8 μM and 25 μM). The complexes were incubated with the cells for 4 hours. The medium was then substituted with a complete growth medium.
At 4 and 24 hours, cells were washed three times with PBS and fixed with 1% glutaraldehyde solution for 15 min. After fixation, cells were washed three times with PBS and mounted in glycerol mounting solution (10 mM phosphate, 150 mM NaCl, 70% glycerol, pH 7.5). The localization of fluorescein labelled phosphothioate oligonucleotide was determined by fluorescent microscopy, using a Zeiss fluorescent microscope.

HeLa cells [2] = assay: Intracellular delivery of fluorescein labelled anionic polypeptide, fluorescent microscopy; details: 1 μM labelled polyanion in the presence of 25 μM compound (1)
HeLa cells [3] = assay: Transfection of HeLa cells with pCMVL, luciferase assay
Method: The cells were resuspended in fresh medium and placed either in 24-well plates (5×10^4 cells per well) or in 6-well plates (2-2.5×10^4 cells per well). Just before transfection, the cells were placed in fresh medium with or without 10% FCS. In general, cells were transfected at 50 to 70% confluence. […] Cell debris was removed by centrifugation (14000 rpm for 2 min). Usually, enzyme activity (see below) was determined directly after cell lysis.
Plasmid DNA (from a stock solution of a concentration of about 1 mg/ml) and cationic lipids (from a stock solution of a concentration 1 to 2 mg/ml) were diluted separately in 1.5 ml Eppendorf tubes with 10 mM Hepes, 0.9% NaCl buffer, pH 7.4, to the final volume of 100 μl. The amount of DNA in typical transfections varied from 1 to 2 μg per 100 μl. The amount of a cationic lipid varied from 0 to 20 μg per 100 μl. Two solutions were mixed together to form a DNA-lipid solution. After incubation for 10 min at room temperature the resultant DNA-lipid solution was added to the cell cultures, growing as described before, and gently mixed. Alternatively, the DNA-lipid solution was diluted with 800 μl (for 24- or 6-well plates) of the appropriate medium (+/−FCS) and mixed. The diluted solution was then overlayed onto the cells, rinsed with the appropriate medium. […] A typical incubation time in the absence of serum was 4 hours. The transfection medium was then substituted with a complete growth medium. In the presence of serum, the transfection medium was usually not replaced and the cells continued to grow in the presence of complexes until the end of experiments (one step transfection).
Luciferase assay. […] The luciferase assay was performed by adding 5 to 10 μl of cell extract.
Just before transfection, the medium was removed and cells were supplied with 1 ml fresh medium with or without serum. […] In the absence of serum, the transfection medium was removed after 4 hours, and the cells were supplied with 1 ml fresh serum supplemented medium. […]

K562 cells = assay: Transfection of K562 suspension cells with pCMVL, luciferase assay; details: K562, presence of serum
Method: HeLa (CCL2, epitheloid carcinoma, human), COS-7 (CRL 1651, kidney, SV-40 transformed, African green monkey), HT-29 (HTB 38, adenocarcinoma, colon, human), CV-1 (CCL 70, kidney, African green monkey), 818-4 (adenocarcinoma, pancreas, human), H4IIE (CRL 1548; hepatoma, rat), K562 (CCL 243; chronic myelogenous leukemia, human), HL-60 (CCL 240; promyelotic leukemia, human) were grown in 5% CO2 at 37° C. on plastic tissue culture flasks in RPMI 1640 or DMEM with 10% fetal calf serum and supplemented with penicillin at 100 units per ml, streptomycin at 100 μg per ml, 2 mM glutamine and 0.1 μM dexamethasone for H4IIE cells.
At 24 hours before transfection, the cells were placed in fresh complete growth medium. Just before transfection, the cells were collected, resuspended in fresh medium with or without 10% FCS at 0.25×10^6 cells per ml, and placed in 24-well plates, 2 ml per well.
The cells were normally harvested 24 hours after transfection (the time of harvesting is an important variable and should be optimized), collected by centrifugation and resuspended in 10 ml of PBS, again centrifuged, and the cell pellet was transferred into a 1.5 ml Eppendorf tube with 1 ml PBS. The cells were centrifuged in the Eppendorf centrifuge (14000 rpm for 20 sec), The resulting cells were lysed in 100 μl of lysis buffer (described above). […]

Molecule	fluorescence of cells (HeLa cells [1]; 1 μM fluorescein labelled oligonucleotide alone, after 4 and 24 hours, without serum)	effect of serum on fluorescence and distribution (HeLa cells [1]; experiments performed in the presence of serum)	fluorescence intensity at 25 μM compared with 8 μM compound (1) (HeLa cells [1]; 1 μM fluorescein labelled oligonucleotide)	fluorescence of cells (HeLa cells [1]; 1 μM fluorescein labelled oligonucleotide in the presence of compound (1) (8 μM and 25 μM), 4 hours)	fluorescence of cells (HeLa cells [1]; 1 μM fluorescein labelled oligonucleotide in the presence of compound (1), after 24 hours)	fluorescence of cells (HeLa cells [2]; after 45 min)	fluorescence of cells (HeLa cells [2]; after 24 hours)	transfection in comparison to DOTAP transfection (HeLa cells [3]; absence of serum) [fold]	transfection in comparison to DOTAP transfection (HeLa cells [3]; presence of serum) [fold]	time after which the same luciferase activity (4.5×10^4 light units) was observed (HeLa cells [3]; with serum) [hours]	transfection higher than obtained with DOTAP (K562 cells)
5′-ACT TGG ATA CGC ACG-fluorescein-3 [fluorescein labelled oligonucleotide, reference compound]	faint fluorescence	did not change the overall fluorescence and distribution	–	–	–	–	–	–	–	–	–
CCCCCCCC/C=C\CCCCCCCC(=O)OCCN(CCOC(=O)CCCCCCC/C=C\CCCCCCCC)C(=O)[C@@H](N)CCCCN.Cl.Cl [Compound 1, L-Lysine-bis(O,O′-oleoyl-β-hydroxyethyl)amide dihydrochloride]	–	–	higher	very bright punktate fluorescence in the cytoplasm	very clear punktate fluorescence in the cytoplasm	bright cytoplasmic punktate fluorescence	very bright punktate fluorescence in the cytoplasm	6	12	3	more than 10 fold
